Data from patent publication US11214803B2, “Modulators of YAP1 expression” (Ionis Pharmaceuticals, Inc., priority 2019, dated 2022).
Strand notation (5' to 3'): a small letter for the sugar, then the base; units joined by * are phosphorothioate-linked, units joined directly phosphodiester-linked; [ ] holds rarer units or linkages, { } end groups; capitals alone tell only the bases. e = 2'-O-(2-methoxyethyl) (MOE); k = constrained ethyl (cEt); [5mC] = 5-methylcytosine; d = 2'-deoxy (DNA); m = 2'-O-methyl

System: Yap1 mRNA
Assay: Antisense inhibition of human Yap1 in SNU-449 cells by modified oligonucleotides, single dose (Example 5, RTS36584)
Format: cell-based
Settings: Table 39; SNU-449 cells, 10,000 cells per well, free uptake, 2,000 nM oligonucleotide, approx. 48 hours; RTS36584; normalized to RIBOGREEN; Yap1 mRNA relative to untreated control
How it was run: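 SNU-449 cells were given 2,000 nM oligonucleotide by free uptake for about 48 h. Yap1 mRNA was then measured by RT-qPCR with primer probe set RTS36584, normalized to total RNA by RIBOGREEN and expressed as percent of untreated control.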

Row | Substance | YAP1 (% UTC)
1 | 1198382 (kT*dT*dA*dG*dA*dG*dT*dA*dT*dG*dT*kG*eG*k[5mC]*eA*kA; antisense) [Compound 1198382] | 19 % UTC
2 | 1198401 (kT*dT*dA*dA*dG*d[5mC]*dA*d[5mC]*dT*dT*dT*kT*eA*k[5mC]*eA*kT; antisense) [Compound 1198401] | 63 % UTC
3 | 1198424 (k[5mC]*dT*d[5mC]*dT*dT*dA*dT*dA*dT*dG*dG*kT*eT*kT*eT*kG; antisense) [Compound 1198424] | 15 % UTC
4 | 1198451 (k[5mC]*dT*dA*dA*dG*dT*dA*dA*dG*dG*dT*kT*eT*k[5mC]*e[5mC]*k[5mC]; antisense) [Compound 1198451] | 48 % UTC

Same assay, conditions: Table 40 (separate experiment); SNU-449 cells, 10,000 cells per well, free uptake, 2,000 nM oligonucleotide, approx. 48 hours; RTS36584; normalized to RIBOGREEN; Yap1 mRNA relative to untreated control

Row | Substance | YAP1 (% UTC)
5 | 1198717 (kA*eA*kA*dT*dT*dG*dT*d[5mC]*dT*d[5mC]*dA*dT*eG*e[5mC]*k[5mC]*kT; antisense) [Compound 1198717] | 41 % UTC
6 | 1198765 (k[5mC]*eA*kG*dA*dT*dT*dT*dA*dG*dG*dA*dT*eG*e[5mC]*kA*kT) [Compound 1198765] | 23 % UTC
7 | 1198799 (antisense k[5mC]*eT*kA*dA*dG*dT*dA*dA*dG*dG*dT*dT*eT*e[5mC]*k[5mC]*k[5mC]) [Compound 1198799] | 18 % UTC

Same assay, conditions: Table 41; SNU-449 cells, 10,000 cells per well, free uptake, 2,000 nM modified oligonucleotide, approximately 48 hours; RTS36584; normalized to RIBOGREEN; Yap1 mRNA relative to untreated control cells

Row | Substance | YAP1 (% UTC)
8 | 1198639 (kT*kA*dG*dA*dG*dT*dA*dT*dG*dT*dG*dG*k[5mC]*eA*kA*eT; antisense) [Compound 1198639] | 32 % UTC
9 | 1198670 (antisense kT*kT*dA*dG*dG*dA*dT*dG*d[5mC]*dA*dT*dG*kG*eT*kT*eT) [Compound 1198670] | 55 % UTC
10 | 1198636 (kA*kT*dA*dT*dG*dG*dA*dA*dA*dT*dT*dG*kT*e[5mC]*kT*e[5mC]; antisense) [Compound 1198636] | 41 % UTC
11 | 1198661 (antisense kT*kT*dG*dG*dA*dA*dG*dA*dT*d[5mC]*dT*dG*kA*eA*kA*e[5mC]) [Compound 1198661] | 111 % UTC

Same assay, conditions: Table 43 experiment; SNU-449 cells, 10,000 cells per well, free uptake, 2,000 nM, approximately 48 hours; RTS36584; Yap1 mRNA normalized to RIBOGREEN, relative to untreated control cells

Row | Substance | YAP1 (% UTC)
12 | 1198249 (kT*kT*dA*dT*dA*dT*dG*dG*dT*dT*dT*eT*eG*eT*kG*kT; antisense) [Compound 1198249] | 42 % UTC
13 | 1198261 (kG*kT*dA*dA*dT*dA*dT*dT*dG*d[5mC]*dA*eA*eT*e[5mC]*kT*kG; antisense) [Compound 1198261] | 54 % UTC
14 | 1198262 (kT*kG*dT*dA*dA*dT*dA*dT*dT*dG*d[5mC]*eA*eA*eT*k[5mC]*kT; antisense) [Compound 1198262] | 114 % UTC
15 | 1198219 (kG*kA*dG*dG*dT*dA*dT*dA*dA*d[5mC]*dT*eG*eG*eG*k[5mC]*kA; antisense) [Compound 1198219] | 22 % UTC

Same assay, conditions: Table 44 experiment; SNU-449 cells, 10,000 cells per well, free uptake, 2,000 nM, approximately 48 hours; RTS36584; Yap1 mRNA normalized to RIBOGREEN, relative to untreated control cells

Row | Substance | YAP1 (% UTC)
16 | 1198905 (kA*kT*dA*dT*dT*dA*dG*dA*dG*dT*dA*kT*dG*kT*dG*kG; antisense) [Compound 1198905] | 5 % UTC
17 | 1198505 (kA*kT*dT*d[5mC]*dA*dG*dA*dT*dT*dT*dA*eG*kG*eA*kT*eG; antisense) [Compound 1198505] | 73 % UTC

Same assay, conditions: Table 45; Yap1 mRNA as percent of untreated control, SNU-449 cells, single dose

Row | Substance | YAP1 (% UTC)
18 | 1198943 (kT*k[5mC]*dT*dT*dA*dT*dA*dT*dG*dG*dT*kT*dT*kT*dG*kT; antisense) [Compound 1198943] | 31 % UTC
19 | 1198973 (kG*kA*d[5mC]*dT*dA*dA*dG*dT*dA*dA*dG*kG*dT*kT*dT*k[5mC]; antisense) [Compound 1198973] | 53 % UTC
20 | 1198949 (kA*kT*dT*dG*d[5mC]*dA*dA*dT*d[5mC]*dT*dG*kT*d[5mC]*kT*dG*kA; antisense) [Compound 1198949] | 61 % UTC

Same assay, conditions: Table 46; Yap1 mRNA as percent of untreated control, SNU-449 cells, single dose

Row | Substance | YAP1 (% UT)
21 | 1095425 (antisense kT*kG*dA*dG*dG*dT*dA*dT*dA*dA*d[5mC]*kT*eG*kG*eG*k[5mC]) [Compound 1095425] | 57 % UT
22 | 1198966 (kA*kA*d[5mC]*dT*dT*dT*dA*dA*dA*dG*dT*kG*dT*kA*dT*kG) [Compound 1198966] | 78 % UT
23 | 1198813 (antisense kA*kG*dT*dA*dT*dG*dT*dG*dG*d[5mC]*dA*kA*eT*kA*eA*kT) [Compound 1198813] | 55 % UT
24 | 1198810 (antisense kT*kG*dG*dA*dA*dA*dT*dT*dG*dT*d[5mC]*kT*e[5mC]*kA*eT*kG) [Compound 1198810] | 50 % UT
25 | 1198839 (k[5mC]*kT*dT*dT*dG*dG*dA*dA*dG*dA*dT*k[5mC]*eT*kG*eA*kA; antisense) [Compound 1198839] | 36 % UT
26 | 1198811 (antisense kA*kT*dG*dG*dA*dA*dA*dT*dT*dG*dT*k[5mC]*eT*k[5mC]*eA*kT) [Compound 1198811] | 38 % UT
27 | 1198837 (kT*kT*dG*dG*dA*dA*dG*dA*dT*d[5mC]*dT*kG*eA*kA*eA*k[5mC]; antisense) [Compound 1198837] | 66 % UT

Same assay, conditions: Table 48; Yap1 mRNA level relative to untreated control; modified oligonucleotides targeting SEQ ID NO.: 1 and 2

Row | Substance | YAP1 (% UT)
28 | 1198322 (kG*kT*kG*d[5mC]*dT*dT*dT*dG*dG*dA*dA*dG*kA*eT*k[5mC]*eT; antisense) [Compound 1198322] | 48 % UT
29 | 1198308 (kT*kT*kT*dT*dA*d[5mC]*dA*dT*dT*dA*dG*dG*kA*eA*k[5mC]*eA; antisense) [Compound 1198308] | 68 % UT
30 | 1198317 (kT*kT*kG*dG*dA*dA*dG*dA*dT*d[5mC]*dT*dG*kA*eA*kA*e[5mC]; antisense) [Compound 1198317] | 74 % UT
31 | 1198309 (k[5mC]*kT*kT*dT*dT*dA*d[5mC]*dA*dT*dT*dA*dG*kG*eA*kA*e[5mC]; antisense) [Compound 1198309] | 85 % UT
32 | 1198294 (kA*kG*kA*dG*dT*dA*dT*dG*dT*dG*dG*d[5mC]*kA*eA*kT*eA; antisense) [Compound 1198294] | 13 % UT
33 | 1198297 (kA*kT*kT*dA*dG*dA*dG*dT*dA*dT*dG*dT*kG*eG*k[5mC]*eA; antisense) [Compound 1198297] | 8 % UT

Same assay, conditions: Table 49; Yap1 mRNA level relative to untreated control; modified oligonucleotides targeting SEQ ID NO.: 1 and 2

Row | Substance | YAP1 (% UT)
34 | 1198577 (antisense k[5mC]*kT*kT*dT*dG*dG*dA*dA*dG*dA*dT*d[5mC]*kT*kG*kA*eA) [Compound 1198577] | 40 % UT
35 | 1198578 (antisense GCTTTGGAAGATCTGA; chemistry not fully specified) [Compound 1198578] | 18 % UT

Same assay, conditions: Table 50; Yap1 mRNA remaining as percent of untreated control (UT), SNU-449 cells, single dose

Row | Substance | YAP1 (% UT)
36 | 1198623 (k[5mC]*kT*kA*dA*dG*dT*dA*dA*dG*dG*dT*dT*kT*k[5mC]*k[5mC]*e[5mC]; antisense) [Compound 1198623] | 9 % UT
37 | 1198586 (antisense kA*kT*kT*dT*dA*dG*dG*dA*dT*dG*d[5mC]*dA*kT*kG*kG*eT) [Compound 1198586] | 96 % UT
38 | 1198560 (antisense kT*kA*kT*dA*dA*d[5mC]*dT*dG*dG*dG*d[5mC]*dA*kA*kA*kT*eT) [Compound 1198560] | 53 % UT
39 | 1197287 (kT*kA*kT*dA*mU*dT*dA*dG*dA*dG*dT*dA*dT*kG*kT*kG) [Compound 1197287] | 108 % UT
40 | 1198608 (antisense kT*kA*kT*dG*dT*dA*dA*dT*dA*dT*dT*dG*k[5mC]*kA*kA*eT) [Compound 1198608] | 83 % UT

Same assay, conditions: Table 51; Yap1 mRNA remaining as percent of untreated control (UT), SNU-449 cells, single dose

Row | Substance | YAP1 (% UT)
41 | 1197277 (kA*k[5mC]*kT*dA*mA*dG*dT*dA*dA*dG*dG*dT*dT*kT*k[5mC]*k[5mC]) [Compound 1197277] | 23 % UT
42 | 1197265 (kT*kA*kA*dT*mA*dT*dT*dG*d[5mC]*dA*dA*dT*d[5mC]*kT*kG*kT) [Compound 1197265] | 103 % UT
43 | 1197278 (kG*kA*k[5mC]*dT*mA*dA*dG*dT*dA*dA*dG*dG*dT*kT*kT*k[5mC]) [Compound 1197278] | 36 % UT
44 | 1197248 (antisense kT*kT*kA*dA*mG*d[5mC]*dA*d[5mC]*dT*dT*dT*dT*dA*k[5mC]*kA*kT) [Compound 1197248] | 75 % UT
45 | 1200796 (kT*kT*kA*dG*dA*mG*dT*dA*dT*dG*dT*dG*dG*k[5mC]*kA*kA; antisense) [Compound 1200796] | 15 % UT
46 | 1197266 (kT*kG*kT*dA*mA*dT*dA*dT*dT*dG*d[5mC]*dA*dA*kT*k[5mC]*kT) [Compound 1197266] | 31 % UT

Same assay, conditions: Table 52; Yap1 mRNA, modified oligonucleotides targeting SEQ ID NO: 1 and 2

Row | Substance | YAP1 (% UT)
47 | 1200852 (kT*kG*kT*dA*dA*mU*dA*dT*dT*dG*d[5mC]*dA*dA*kT*k[5mC]*kT; antisense) [Compound 1200852] | 32 % UT
48 | 1200819 (kT*kT*kA*dA*dG*mC*dA*d[5mC]*dT*dT*dT*dT*dA*k[5mC]*kA*kT; antisense) [Compound 1200819] | 101 % UT
49 | 1200841 (kT*k[5mC]*kT*dT*dA*mU*dA*dT*dG*dG*dT*dT*dT*kT*kG*kT; antisense) [Compound 1200841] | 76 % UT

Same assay, conditions: Yap1 mRNA, percent of untreated control; modified oligonucleotides targeting SEQ ID NO: 1 and 2; Table 47

Row | Substance | YAP1 (% UT)
50 | 1009326 (kT*kA*kT*dT*dA*dG*dA*dG*dT*dA*dT*dG*dT*kG*kG*k[5mC]; antisense) [Compound 1009326] | 10 % UT
